Test results taken from the supplement of paper PMC10307832.

What was measured:
Assay in all cases: relative viability (nuclei count vs DMSO), 5 days (fraction); higher = more cells survive
BEN = test system: BEN
How it was run: (§1)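 After 5 days of treatment, lung cancer cells in 1536-well plates were fixed and stained in a single step (final 0.05% Triton X-100, 1% formaldehyde, 1 ug/ml Hoechst) and their nuclei counted on 4× images. Treatment had been applied by pin tool the day after seeding as one drug alone or as a fixed anchor-drug dose with five library-drug doses (not always all listed) in √10 steps. Relative viability is the nuclei count of treated wells divided by that of vehicle wells, and values are medians of duplicate plates.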

CAL-12T = test system: CAL-12T
How it was run: as §1

COR-L 105 = test system: COR-L 105
How it was run: as §1

COR-L23 = test system: COR-L23
How it was run: as §1

HARA = test system: HARA
How it was run: as §1

HCC-15 = test system: HCC-15
How it was run: as §1

HCC-366 = test system: HCC-366
How it was run: as §1

HCC-44 = test system: HCC-44
How it was run: as §1

HCC-827 = test system: HCC-827
How it was run: as §1

HOP-62 = test system: HOP-62
How it was run: as §1

LC-2-ad = test system: LC-2-ad
How it was run: as §1

LCLC-97TM1 = test system: LCLC-97TM1
How it was run: as §1

LU99A = test system: LU99A
How it was run: as §1

LXF-289 = test system: LXF-289
How it was run: as §1

NCI-H1993 = test system: NCI-H1993
How it was run: as §1

NCI-H2009 = test system: NCI-H2009
How it was run: as §1

NCI-H2087 = test system: NCI-H2087
How it was run: as §1

NCI-H2126 = test system: NCI-H2126
How it was run: as §1

NCI-H2170 = test system: NCI-H2170
How it was run: as §1

NCI-H727 = test system: NCI-H727
How it was run: as §1

PC-14 = test system: PC-14
How it was run: as §1

PC-3 [JPC-3] = test system: PC-3 [JPC-3]
How it was run: as §1

SK-MES-1 = test system: SK-MES-1
How it was run: as §1

Cc1cnc(-c2cnc(NCCNc3ccc(C#N)cn3)nc2-c2ccc(Cl)cc2Cl)[nH]1 + C[C@@H](Oc1cc(-c2cnn(C3CCNCC3)c2)cnc1N)c1c(Cl)ccc(F)c1Cl [Crizotinib] (partner 1 µM)
relative viability (BEN; first compound 0.08 µM): 0.908 | relative viability (BEN; first compound 0.253 µM): 0.787 | relative viability (BEN; first compound 0.8 µM): 0.846 | relative viability (BEN; first compound 2.53 µM): 0.876 | relative viability (CAL-12T; first compound 0.08 µM): 0.722 | relative viability (CAL-12T; first compound 0.253 µM): 0.507 | relative viability (CAL-12T; first compound 0.8 µM): 0.529 | relative viability (CAL-12T; first compound 2.53 µM): 0.376 | relative viability (COR-L 105; first compound 0.08 µM): 0.869 | relative viability (COR-L 105; first compound 0.253 µM): 0.716 | relative viability (COR-L 105; first compound 0.8 µM): 0.706 | relative viability (COR-L 105; first compound 2.53 µM): 0.529 | relative viability (COR-L23; first compound 0.08 µM): 0.619 | relative viability (COR-L23; first compound 0.253 µM): 0.605 | relative viability (COR-L23; first compound 0.8 µM): 0.833 | relative viability (COR-L23; first compound 2.53 µM): 0.722 | relative viability (HARA; first compound 0.08 µM): 1.02 | relative viability (HARA; first compound 0.253 µM): 0.956 | relative viability (HARA; first compound 0.8 µM): 1.06 | relative viability (HARA; first compound 2.53 µM): 1.12 | relative viability (HCC-15; first compound 0.08 µM): 0.781 | relative viability (HCC-15; first compound 0.253 µM): 0.659 | relative viability (HCC-15; first compound 0.8 µM): 0.799 | relative viability (HCC-15; first compound 2.53 µM): 0.803 | relative viability (HCC-366; first compound 0.08 µM): 0.654 | relative viability (HCC-366; first compound 0.253 µM): 0.408 | relative viability (HCC-366; first compound 0.8 µM): 0.534 | relative viability (HCC-366; first compound 2.53 µM): 0.422 | relative viability (HCC-44; first compound 0.08 µM): 0.781 | relative viability (HCC-44; first compound 0.253 µM): 0.886 | relative viability (HCC-44; first compound 0.8 µM): 0.774 | relative viability (HCC-44; first compound 2.53 µM): 0.767 | relative viability (HCC-827; first compound 0.08 µM): 0.929 | relative viability (HCC-827; first compound 0.8 µM): 0.882 | relative viability (HCC-827; first compound 2.53 µM): 0.923 | relative viability (HOP-62; first compound 0.08 µM): 0.892 | relative viability (HOP-62; first compound 0.253 µM): 0.816 | relative viability (HOP-62; first compound 0.8 µM): 0.997 | relative viability (HOP-62; first compound 2.53 µM): 0.853 | relative viability (LC-2-ad; first compound 0.08 µM): 0.489 | relative viability (LC-2-ad; first compound 2.53 µM): 0.426 | relative viability (LCLC-97TM1; first compound 0.08 µM): 0.338 | relative viability (LCLC-97TM1; first compound 0.253 µM): 0.401 | relative viability (LCLC-97TM1; first compound 0.8 µM): 0.362 | relative viability (LCLC-97TM1; first compound 2.53 µM): 0.349 | relative viability (LU99A; first compound 0.08 µM): 0.621 | relative viability (LU99A; first compound 0.253 µM): 0.459 | relative viability (LU99A; first compound 0.8 µM): 0.534 | relative viability (LU99A; first compound 2.53 µM): 0.592 | relative viability (LXF-289; first compound 0.08 µM): 0.852 | relative viability (LXF-289; first compound 0.253 µM): 0.796 | relative viability (LXF-289; first compound 0.8 µM): 0.839 | relative viability (LXF-289; first compound 2.53 µM): 0.87 | relative viability (NCI-H1993; first compound 0.08 µM): 0.804 | relative viability (NCI-H1993; first compound 0.253 µM): 0.861 | relative viability (NCI-H1993; first compound 0.8 µM): 0.884 | relative viability (NCI-H1993; first compound 2.53 µM): 0.954 | relative viability (NCI-H2009; first compound 0.08 µM): 1.09 | relative viability (NCI-H2009; first compound 0.253 µM): 0.958 | relative viability (NCI-H2009; first compound 0.8 µM): 1 | relative viability (NCI-H2009; first compound 2.53 µM): 0.892 | relative viability (NCI-H2087; first compound 0.08 µM): 0.744 | relative viability (NCI-H2087; first compound 0.253 µM): 0.823 | relative viability (NCI-H2087; first compound 0.8 µM): 0.862 | relative viability (NCI-H2087; first compound 2.53 µM): 0.693 | relative viability (NCI-H2126; first compound 0.08 µM): 0.996 | relative viability (NCI-H2126; first compound 0.253 µM): 1.02 | relative viability (NCI-H2126; first compound 0.8 µM): 0.968 | relative viability (NCI-H2126; first compound 2.53 µM): 1.01 | relative viability (NCI-H2170; first compound 0.08 µM): 1.25 | relative viability (NCI-H2170; first compound 0.253 µM): 1.07 | relative viability (NCI-H2170; first compound 0.8 µM): 1.26 | relative viability (NCI-H2170; first compound 2.53 µM): 1.06 | relative viability (NCI-H727; first compound 0.08 µM): 1.67 | relative viability (NCI-H727; first compound 0.253 µM): 0.771 | relative viability (NCI-H727; first compound 0.8 µM): 0.797 | relative viability (NCI-H727; first compound 2.53 µM): 0.676 | relative viability (PC-14; first compound 0.08 µM): 0.911 | relative viability (PC-14; first compound 0.253 µM): 0.811 | relative viability (PC-14; first compound 0.8 µM): 0.896 | relative viability (PC-14; first compound 2.53 µM): 0.807 | relative viability (PC-3 [JPC-3]; first compound 0.08 µM): 0.936 | relative viability (PC-3 [JPC-3]; first compound 0.253 µM): 0.894 | relative viability (PC-3 [JPC-3]; first compound 0.8 µM): 0.999 | relative viability (PC-3 [JPC-3]; first compound 2.53 µM): 0.953 | relative viability (SK-MES-1; first compound 0.08 µM): 0.97 | relative viability (SK-MES-1; first compound 0.253 µM): 0.937 | relative viability (SK-MES-1; first compound 0.8 µM): 1.05 | relative viability (SK-MES-1; first compound 2.53 µM): 0.941
